Source: ChEMBL document CHEMBL2440076, “New triarylpyrazoles as broad-spectrum anticancer agents: design, synthesis, and biological evaluation” (Eur J Med Chem, 2013)

Tests used:
Assay type in all cases: functional
[1] = tested on: ACHN; experiment: Growth inhibition of human ACHN cells assessed as cell growth at 10^-7 M after 48 hrs by sulforhodamine B assay; details: read-out: Activity
[2] = tested on: OVCAR-3; experiment: Growth inhibition of human OVCAR3 cells assessed as cell growth at 10^-5 M after 48 hrs by sulforhodamine B assay; details: OVCAR-3, 48 h, read-out: Activity
[3] = tested on: SR; experiment: Growth inhibition of human SR cells assessed as cell growth at 10^-7 M after 48 hrs by sulforhodamine B assay; details: read-out: Activity
[4] = tested on: SNB-19; experiment: Growth inhibition of human SNB19 cells assessed as cell growth at 10^-5 M after 48 hrs by sulforhodamine B assay; details: SNB-19, 48 h, read-out: Activity
[5] = tested on: T47D; experiment: Growth inhibition of human T47D cells assessed as cell growth at 10^-5 M after 48 hrs by sulforhodamine B assay; details: read-out: Activity
[6] = tested on: HL-60(TB); experiment: Growth inhibition of human HL-60(TB) cells assessed as cell growth at 10^-8 M after 48 hrs by sulforhodamine B assay; details: HL-60, 48 h, read-out: Activity
[7] = tested on: SNB-19; experiment: Growth inhibition of human SNB19 cells assessed as cell growth at 10^-8 M after 48 hrs by sulforhodamine B assay; details: SNB-19, 48 h, read-out: Activity
[8] = tested on: A549; experiment: Growth inhibition of human A549/ATCC cells assessed as cell growth at 10^-8 M after 48 hrs by sulforhodamine B assay; details: A549, 48 h, read-out: Activity
[9] = tested on: LOX IMVI; experiment: Growth inhibition of human LOXIMVI cells assessed as cell growth at 10^-5 M after 48 hrs by sulforhodamine B assay; details: read-out: Activity
[10] = tested on: NCI-H226; experiment: Growth inhibition of human NCI-H226 cells assessed as cell growth at 10^-6 M after 48 hrs by sulforhodamine B assay; details: NCI-H226, 48 h, read-out: Activity
[11] = tested on: Malme-3M; experiment: Growth inhibition of human MALME-3M cells assessed as cell growth at 10^-6 M after 48 hrs by sulforhodamine B assay; details: read-out: Activity
[12] = tested on: MCF7; experiment: Growth inhibition of human MCF7 cells assessed as cell growth at 10^-4 M after 48 hrs by sulforhodamine B assay; details: MCF7, 48 h, read-out: Activity
[13] = tested on: RXF 393; experiment: Growth inhibition of human RXF393 cells assessed as cell growth at 10^-7 M after 48 hrs by sulforhodamine B assay; details: RXF 393, 48 h, read-out: Activity
[14] = tested on: ACHN; experiment: Growth inhibition of human ACHN cells assessed as cell growth at 10^-6 M after 48 hrs by sulforhodamine B assay; details: read-out: Activity
[15] = tested on: SK-OV-3; experiment: Growth inhibition of human SKOV3 cells assessed as cell growth at 10^-6 M after 48 hrs by sulforhodamine B assay; details: SK-OV-3, 48 h, read-out: Activity
[16] = tested on: HOP-92; experiment: Growth inhibition of human HOP92 cells assessed as cell growth at 10^-8 M after 48 hrs by sulforhodamine B assay; details: HOP-92, 48 h, read-out: Activity
[17] = tested on: SNB-19; experiment: Growth inhibition of human SNB19 cells assessed as cell growth at 10^-4 M after 48 hrs by sulforhodamine B assay; details: SNB-19, 48 h, read-out: Activity
[18] = tested on: CCRF-CEM; experiment: Growth inhibition of human CCRF-CEM cells assessed as cell growth at 10^-7 M after 48 hrs by sulforhodamine B assay; details: read-out: Activity
[19] = tested on: 786-0; experiment: Growth inhibition of human 786-0 cells assessed as cell growth at 10^-4 M after 48 hrs by sulforhodamine B assay; details: 786-0, 48 h, read-out: Activity
[20] = tested on: BT-549; experiment: Growth inhibition of human BT549 cells assessed as cell growth at 10^-7 M after 48 hrs by sulforhodamine B assay; details: BT-549, 48 h, read-out: Activity
[21] = tested on: UACC-62; experiment: Growth inhibition of human UACC62 cells assessed as cell growth at 10^-4 M after 48 hrs by sulforhodamine B assay; details: UACC-62, 48 h, read-out: Activity
[22] = tested on: MDA-MB-435; experiment: Growth inhibition of human MDA-MB-435 cells assessed as cell growth at 10^-6 M after 48 hrs by sulforhodamine B assay; details: MDA-MB-435, 48 h, read-out: Activity
[23] = Growth inhibition of human Hs 578T cells assessed as cell growth at 10^-7 M after 48 hrs by sulforhodamine B assay; details: read-out: Activity
[24] = tested on: UACC-62; experiment: Growth inhibition of human UACC62 cells assessed as cell growth at 10^-6 M after 48 hrs by sulforhodamine B assay; details: UACC-62, 48 h, read-out: Activity
[25] = tested on: M14; experiment: Growth inhibition of human M14 cells assessed as cell growth at 10^-7 M after 48 hrs by sulforhodamine B assay; details: M14, 48 h, read-out: Activity
[26] = tested on: T47D; experiment: Growth inhibition of human T47D cells assessed as cell growth at 10^-8 M after 48 hrs by sulforhodamine B assay; details: read-out: Activity
[27] = tested on: OVCAR-3; experiment: Growth inhibition of human OVCAR3 cells assessed as cell growth at 10^-4 M after 48 hrs by sulforhodamine B assay; details: OVCAR-3, 48 h, read-out: Activity
[28] = tested on: UO-31; experiment: Growth inhibition of human UO31 cells assessed as cell growth at 10^-8 M after 48 hrs by sulforhodamine B assay; details: UO-31, 48 h, read-out: Activity
[29] = tested on: SF-268; experiment: Growth inhibition of human SF268 cells assessed as cell growth at 10^-5 M after 48 hrs by sulforhodamine B assay; details: SF-268, 48 h, read-out: Activity
[30] = tested on: OVCAR-4; experiment: Growth inhibition of human OVCAR4 cells assessed as cell growth at 10^-8 M after 48 hrs by sulforhodamine B assay; details: OVCAR-4, 48 h, read-out: Activity
[31] = tested on: UO-31; experiment: Growth inhibition of human UO31 cells assessed as cell growth at 10^-7 M after 48 hrs by sulforhodamine B assay; details: UO-31, 48 h, read-out: Activity
[32] = tested on: NCI-H460; experiment: Growth inhibition of human NCI-H460 cells assessed as cell growth at 10^-4 M after 48 hrs by sulforhodamine B assay; details: NCI-H460, 48 h, read-out: Activity
[33] = tested on: CCRF-CEM; experiment: Growth inhibition of human CCRF-CEM cells assessed as cell growth at 10^-6 M after 48 hrs by sulforhodamine B assay; details: read-out: Activity
[34] = tested on: HOP-92; experiment: Growth inhibition of human HOP92 cells assessed as cell growth at 10^-5 M after 48 hrs by sulforhodamine B assay; details: HOP-92, 48 h, read-out: Activity
[35] = tested on: TK-10; experiment: Growth inhibition of human TK10 cells assessed as cell growth at 10^-4 M after 48 hrs by sulforhodamine B assay; details: TK-10, 48 h, read-out: Activity
[36] = tested on: M14; experiment: Growth inhibition of human M14 cells assessed as cell growth at 10^-4 M after 48 hrs by sulforhodamine B assay; details: M14, 48 h, read-out: Activity
[37] = tested on: UACC-257; experiment: Growth inhibition of human UACC257 cells assessed as cell growth at 10^-5 M after 48 hrs by sulforhodamine B assay; details: UACC-257, 48 h, read-out: Activity
[38] = tested on: NCI-H322M; experiment: Growth inhibition of human NCI-H322M cells assessed as cell growth at 10^-5 M after 48 hrs by sulforhodamine B assay; details: read-out: Activity
[39] = tested on: LOX IMVI; experiment: Growth inhibition of human LOXIMVI cells assessed as cell growth at 10^-6 M after 48 hrs by sulforhodamine B assay; details: read-out: Activity

| SMILES | growth at 0.1 µM [1] [%] | growth at 10 µM [2] [%] | growth at 0.1 µM [3] [%] | growth at 10 µM [4] [%] | growth at 10 µM [5] [%] | growth at 0.01 µM [6] [%] | growth at 0.01 µM [7] [%] | growth at 0.01 µM [8] [%] | growth at 10 µM [9] [%] | growth at 1 µM [10] [%] | growth at 1 µM [11] [%] | growth at 100 µM [12] [%] | growth at 0.1 µM [13] [%] | growth at 1 µM [14] [%] | growth at 1 µM [15] [%] | growth at 0.01 µM [16] [%] | growth at 100 µM [17] [%] | growth at 0.1 µM [18] [%] | growth at 100 µM [19] [%] | growth at 0.1 µM [20] [%] | also measured |
| --- | --- | --- | --- | --- | --- | --- | --- | --- | --- | --- | --- | --- | --- | --- | --- | --- | --- | --- | --- | --- | --- |
| COc1cc(-c2nn(-c3cccc(NC(=O)c4ccccc4)c3)cc2-c2ccncc2)ccc1Cl | 95 | 2 | 79 | 30 | 31 | 96 | 99 | 96 | 11 | 64 | 38 | 7 | 113 | 44 | 51 | 93 | 13 | 101 | 18 | 88 | growth at 100 µM [21]: 19%; growth at 1 µM [22]: -28%; growth at 0.1 µM [23]: 97%; growth at 1 µM [24]: 41%; growth at 0.1 µM [25]: 92%; growth at 0.01 µM [26]: 97%; growth at 100 µM [27]: -51%; growth at 0.01 µM [28]: 92%; growth at 10 µM [29]: 24%; growth at 0.01 µM [30]: 93%; growth at 0.1 µM [31]: 81%; growth at 100 µM [32]: 5%; growth at 1 µM [33]: 27%; growth at 10 µM [34]: -8%; growth at 100 µM [35]: 23%; growth at 100 µM [36]: -41%; growth at 10 µM [37]: 29%; growth at 10 µM [38]: 36%; growth at 1 µM [39]: 36% |
| COc1cc(-c2nn(-c3cccc(NC(=O)c4ccc(N5CCOCC5)c(C(F)(F)F)c4)c3)cc2-c2ccncc2)ccc1Cl | 83 | -36 | 19 | 22 | 19 | 109 | 92 | 94 | -8 | 28 | 33 | 8 | 78 | 39 | 24 | 70 | 15 | 73 | 3 | 95 | growth at 100 µM [21]: -32%; growth at 1 µM [22]: -33%; growth at 0.1 µM [23]: 81%; growth at 1 µM [24]: 42%; growth at 0.1 µM [25]: 76%; growth at 0.01 µM [26]: 102%; growth at 100 µM [27]: -33%; growth at 0.01 µM [28]: 91%; growth at 10 µM [29]: 12%; growth at 0.01 µM [30]: 97%; growth at 0.1 µM [31]: 64%; growth at 100 µM [32]: 1%; growth at 1 µM [33]: 12%; growth at 10 µM [34]: -26%; growth at 100 µM [35]: -7%; growth at 100 µM [36]: -30%; growth at 10 µM [37]: -5%; growth at 10 µM [38]: 26%; growth at 1 µM [39]: 29% |
